According to patent publication US5922871A, “Terephthalamide derivatives” (Dongwha Pharmaceutical Ind. Co., Ltd., priority 1997, dated 1999):

Tests used:
[1] = target: T1, HBV polymerase reverse transcriptase (HBV-RT) (Hepatitis B virus genotype D subtype ayw, UniProt P03156); experiment: inhibitory activity against HBV polymerase in vitro (reverse transcriptase activity); type: biochemical; details: read-out: Inhibitory effect of HBV-RT; for inhibition at 0.1 µg/mL: 0.1 μg/ml; for inhibition at 1 µg/mL: 1 μg/ml
T1 construct: made in house; host or cells: E. coli
T1 sequence (P03156 whole entry): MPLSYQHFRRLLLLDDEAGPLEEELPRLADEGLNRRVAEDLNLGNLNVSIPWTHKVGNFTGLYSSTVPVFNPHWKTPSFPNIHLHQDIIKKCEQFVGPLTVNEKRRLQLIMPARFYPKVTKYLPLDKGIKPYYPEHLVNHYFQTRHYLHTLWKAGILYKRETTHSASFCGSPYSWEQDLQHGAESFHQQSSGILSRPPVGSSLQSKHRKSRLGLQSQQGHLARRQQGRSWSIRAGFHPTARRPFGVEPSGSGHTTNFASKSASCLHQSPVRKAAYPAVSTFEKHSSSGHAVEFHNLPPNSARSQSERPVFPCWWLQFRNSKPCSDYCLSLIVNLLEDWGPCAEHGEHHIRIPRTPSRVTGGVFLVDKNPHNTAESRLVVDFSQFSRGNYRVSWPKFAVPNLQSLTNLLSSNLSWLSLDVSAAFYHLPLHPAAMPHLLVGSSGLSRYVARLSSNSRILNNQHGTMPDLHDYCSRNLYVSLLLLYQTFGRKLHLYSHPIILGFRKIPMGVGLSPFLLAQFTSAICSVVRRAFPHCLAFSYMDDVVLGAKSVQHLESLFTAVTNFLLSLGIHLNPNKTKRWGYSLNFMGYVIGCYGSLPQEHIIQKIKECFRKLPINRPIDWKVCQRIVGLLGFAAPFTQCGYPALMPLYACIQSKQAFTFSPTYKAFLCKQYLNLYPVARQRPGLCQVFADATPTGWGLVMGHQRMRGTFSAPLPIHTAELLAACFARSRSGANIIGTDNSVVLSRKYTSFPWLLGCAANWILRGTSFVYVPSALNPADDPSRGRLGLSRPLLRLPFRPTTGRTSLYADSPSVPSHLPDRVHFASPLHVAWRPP
Excerpt: Experiment 1: The inhibitory activity against HBV polymerase in vitro.
Recently, the inventors of the present invention have produced a recombinant HBV polymerase that is expressed from E.coli transformant, measured its enzyme activity and filed patent applications thereof [Korean Patent Application Nos. 94-3918, 96-33998 and 96-63255].
The inventions have established a method of measuring the reverse transcriptase activity of HBV polymerase in vitro. The fundamental principle is the same as the ELISA method, and after reacting the substrate with biotin- and DIG-modified nucleotide, a method of recognizing the polymerized substrate as anti-DIG antibody with peroxidase was used. […] and 20 μ of test compound were mixed and reacted at 14~30° C. for 18~24 hours. Then, the inhibitory effect of test compound against reverse trascriptase activity in the HBV polymerase was examined, compared with the results of control tests without the test compound.

[2] = target: T2, HIV reverse transcriptase (HIV-RT) (Human immunodeficiency virus type 1 group M subtype B, UniProt P04585); experiment: in vitro inhibition test against HIV reverse transcriptase; type: biochemical, HIV (AIDS virus); details: read-out: Inhibitory effect of HIV-RT; for inhibition at 0.1 µg/mL: 0.1 μg/ml; for inhibition at 1 µg/mL: 1 μg/ml
T2 construct: purchased Boehringer Mannheim
Description: Experiment 3: The in vitro inhibition test against HIV reverse transcriptase
The inhibitory activity in vitro was measured using a non-radioactive reverse transcriptase assay Kit (Boehringer Mannheim).
At first, 20 μl(40 ng) HIV-RT was added to the wells coated with streptavidin and with the addition of 20 μl, reaction mixture containing template/primer hybrid poly(A)/oligo(dT)15 and DIG-(digoxigenin)-dUTP, biotin-dUTP and TTP, 20 μl test compound was added and reacted at 37° C. for 1 hour. The control without test compound was used for the comparison of related activity. Since DNA containing nucleotide labeled with digoxigenin and biotine was prepared by the action of HIV-RT, it was combined with streptavidin coated at the bottom of the wells. After the reaction was completed, remaining impurities were removed by washing each well with 20 μl buffer solution (pH 7.0) for 30 seconds 5 times and with the addition of 200 μl anti-DIG-POD antibody, the mixture was reacted at 37° C. for 1 hour. For the removal of remaining impurities again, the reacting solution was washed with a buffer solution and with the addition of 200μl ABTS™ each, a substrate of POD(peroxidase), the solution was reacted at room temperature for 30 minutes. The absorbance was read by ELISA reader at 405 nm for the assay of reverse transcriptase activity and its inhibition activity.

[3] = target: T3, RNase H of HBV polymerase (HBV-RNase H) (Hepatitis B virus ayw/France/Tiollais/1979, UniProt P03156); experiment: inhibitory effects against RNase H activity of HBV polymerase; type: biochemical; details: read-out: Inhibitory effect of HBV-RNase H; for inhibition at 0.1 µg/mL: 0.1 μg/ml; for inhibition at 1 µg/mL: 1 μg/ml
T3 construct: amylose/maltose step implies MBP fusion
T3 sequence (P03156 680-832): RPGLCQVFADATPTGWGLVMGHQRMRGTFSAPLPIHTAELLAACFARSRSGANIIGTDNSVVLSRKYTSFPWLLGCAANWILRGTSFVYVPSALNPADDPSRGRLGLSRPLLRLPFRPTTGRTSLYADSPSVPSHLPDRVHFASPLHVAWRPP
Description: Experiment 2: The inhibitory effects against RNase H activity of HBV polymerase.
1) Expression of the RNase H domain derived from human HBV polymerase
E.coli NM 522 was transformed by the expression vector pMRH respectively and the transformants were cultured in LB medium at 37° C., overnight. These growing cultures were diluted 1:100, inoculated into a glucose rich medium and incubated until OD600 reached 0.5. Then IPTG (isopropylthiogalactoside) was added into the medium of which the fine concentration was 0.5 mM. The above growing cultures were incubated again at 20° C. for 16 hours and the RNase H domain was expressed.
The above cultured broth was centrifuged for 10 minutes at 3,000 rpm and the cell pellet was washed with 10 ml of TNE column buffer (10 mN Tris-Cl, pH 8.0, 200 mM NaCl, 1 mM EDTA), and resuspended in 10 ml of TNE column buffer. The cells were freezed and thawed 4 times repeatedly, and then disrupted by sonication for 10 seconds 3 times. The crude extract prepared in the above process was centrifuged for 30 minutes at 13,000 rpm, 4° C. and the supernatant was separated. The above process was repeated 2 times and then the supernatant passed the amylose resin. The resin was washed by using column buffer with 50 times of resin volume, and the RNase H domain was eluted by using buffer containing 10 mM maltose.
In addition, the RNase H domain produced from the expression vector pMRH was purified by using histidine tag affinity column, because RNase H has a histidine tag at the C-terminus. The resin (Ni-NTA, QIAGEN) used in the histidine tag affinity column was activated by using sonication buffer (50 mM sodium phosphate, pH 8.0, 300 mM sodium chloride) and 4~5 ml of the activated resin was charged in the glass tube whose diameter was about 1 cm. The protein sample obtained from above description passed the resin at the 0.1 ml/ min flow rate and the column was washed by using washing buffer with the 100~200 times volume of protein sample (50 mM sodium phosphate, pH 6.0, 300 mM sodium chloride, 10% glycerol). The recombinant protein was eluted by washing the column with concentration gradient of 0.01~0.5 M imidazole.
As a result, the active RNase H domain was separated from the histidine tag affinity column at 30 mM concentration of imidazole. The purified RNase H domain was mixed with 50% glycerol for storage at -20° C. after the removal of imidazole from it and employed fol the screening of HBV inhibitors.
2) Preparation of the substrate of the RNase H enzyme
In order to identify the RNase H activity, RNA/DNA complex which can be used as a substrate of the RNase H enzyme was prepared by performing in vitro transcription with […].
3) Screening of active inhibitors against RNase H
The RNase H activity was measured by using recombinant RNase H enzyme and radiolabled RNA/DNA hybrid. In order to measure the RNase H activity, 1 μg of RNase H enzyme and test compound were mixed with buffer solution containing 40 mM Tris-Cl (pH 8.0), 4 mM magnesium chloride, 40 mM potassium chloride and 2 mM DTT. The mixture was pretreated on ice for 10 minutes. After pretreatment is completed, RNA/DNA hybrid was added to incubate at 37° C. for 3 hours. After the reaction was stopped, 7.5 M ammonium acetate in a volume of 1/2 and ethanol in a 3-fold volume were added. The above reaction mixture was incubated at -20° C. for more than 2 hours and centrifuged for 15 minutes at 4° C., 13,000 rpm. The supernatant was obtained and the radioactive signal of supernatant was measured by scintillation counter.
As a control, water was added instead of test compound and the inhibitory activity was calculated to compare with the control, when the radioactivity intensity on each test compound, was obtained.

SMILES | inhibition at 0.1 µg/mL [1] | inhibition at 1 µg/mL [1] | inhibition at 0.1 µg/mL [2] | inhibition at 1 µg/mL [2] | inhibition at 0.1 µg/mL [3] | inhibition at 1 µg/mL [3]
CC(C)Nc1cccnc1N1CCN(C(=O)c2ccc(C(=O)NCCO)cc2)CC1 [Compound No. 1, 1-[N-(2-Hydroxyethyl)carbamoyl]-4-[1-[3-(isopropylamino)-2-pyridyl]piperazin-4-yl-carbonyl]benzene] | 53% | 55% | 41% | 62% | 11% | 80%
CCN(CCO)C(=O)c1ccc(C(=O)N2CCN(c3ncccc3NC(C)C)CC2)cc1 [Compound No. 6, 1-[N-Ethyl-N-(2-hydroxyethyl)carbamoyl]-4-[1-[3-(isopropylamino)-2-pyridyl]piperazin-4-yl-carbonyl]benzene] | 30% | 51% | – | – | 55% | 83%
CC(C)Nc1cccnc1N1CCN(C(=O)c2ccc(C(=O)N(CCO)CCO)cc2)CC1 [Compound No. 12, 1-[N,N-Bis(2-hydroxyethyl)carbamoyl]-4-[1-[3-(isopropylamino)-2-pyridyl]piperazin-4-yl-carbonyl]benzene] | 52% | 63% | 46% | 52% | 86% | 91%
CC(C)Nc1cccnc1N1CCN(C(=O)c2ccc(C(=O)N3CCNCC3)cc2)CC1 [Compound No. 19, 1-[4-[1-[3-(Isopropylamino)-2-pyridyl]piperazin-4-yl-carbonyl]benzoyl]piperazine] | – | – | 43% | 52% | 38% | 53%
CC(C)Nc1cccnc1N1CCN(C(=O)c2ccc(C(=O)N3CCN(CCO)CC3)cc2)CC1 [Compound No. 26, 4-(2-Hydroxyethyl)-1-[4-[1-[3-(isopropylamino)-2-pyridyl]piperazin-4-yl-carbonyl]benzoyl]piperazine] | 32% | 54% | 45% | 55% | 66% | 95%
CC(C)Nc1cccnc1N1CCN(C(=O)c2ccc(C(=O)N3CCN(CCCO)CC3)cc2)CC1 [Compound No. 27, 4-(3-Hydroxypropyl)-1-[4-[1-[3-(isopropylam-ino)-2-pyridyl]piperazin-4-yl-carbonyl]benzoyl]piperazine] | – | – | 40% | 68% | 73% | 81%
CC(C)Nc1cccnc1N1CCN(C(=O)c2ccc(C(=O)N3CCN(CC(O)CO)CC3)cc2)CC1 (stereo not shown) [Compound No. 31, 4-(2,3-Dihydroxypropyl)-1-[4-[1-[3-(isopropylamino)-2-pyridyl]piperazin-4-yl-carbonyl]benzoyl]piperazine] | 30% | 52% | – | – | 80% | 85%
CC(C)Nc1cccnc1N1CCN(C(=O)c2ccc(C(=O)NC(CO)CO)cc2)CC1 [Compound No. 52, 1-[N-[Bis(hydroxymethyl)methyl]carbamoyl]-4-[1-[3-(isopropylamino)-2-pyridyl]piperazin-4-yl-carbonyl]benzene] | 52% | 63% | 57% | 61% | 41% | 58%
COCCNC(=O)c1ccc(C(=O)N2CCN(c3ncccc3NC(C)C)CC2)cc1 [Compound No. 61, 4-[1-[3-(Isopropylamino)-2-pyridyl]piperazin-4-yl-carbonyl]-1-[N-(2-methoxyethyl)carbamoyl]benzene] | 33% | 81% | 32% | 65% | – | –
COCCN(CCOC)C(=O)c1ccc(C(=O)N2CCN(c3ncccc3NC(C)C)CC2)cc1 [Compound No. 62, 1-[N,N-Bis(2-methoxyethyl)carbamoyl]-4-[1-[3-(isopropylamino)-2-pyridyl]piperazin-4-yl-carbonyl]benzene] | 53% | 60% | 41% | 58% | – | –
CC(C)Nc1cccnc1N1CCN(C(=O)c2ccc(C(=O)N3CCOCC3)cc2)CC1 [Compound No. 76, 4-[1-[3-(Isopropylamino)-2-pyridyl]piperazin-4-yl-carbonyl]-1-(morpholin-4-yl-carbonyl)benzene] | 49% | 79% | 43% | 52% | – | –
CC(C)Nc1cccnc1N1CCN(C(=O)c2ccc(C(=O)NCCN3CCOCC3)cc2)CC1 [Compound No. 79, 4-[1-[3-(Isopropylamino)-2-pyridyl]piperazin-4-yl-carbonyl]-1-[N-[2-(morpholin-4-yl)ethyl]carbamoyl]benzene] | 65% | 72% | 59% | 71% | – | –
CC(C)Nc1cccnc1N1CCN(C(=O)c2ccc(C(=O)NCCCN3CCOCC3)cc2)CC1 [Compound No. 80, 4-[1-[3-(Isopropylamino)-2-pyridyl]piperazin-4-yl-carbonyl]-1-[N-[3-(morpholin-4-yl)propyl]carbamoyl]benzene] | 40% | 66% | 43% | 56% | – | –
CC(C)Nc1cccnc1N1CCN(C(=O)c2ccc(C(=O)NCCN(C)C)cc2)CC1 [Compound No. 83, 1-[N-[2-(Dimethylamino)ethyl]carbamoyl]-4-[1-[3-(isopropylamino)-2-pyridyl]piperazin-4-yl-carbonyl]benzene] | 62% | 65% | 62% | 65% | – | –
